# In patent US8435778B2, “Gene encoding lignan methyltransferase and use thereof” (Suntory Holdings Limited, priority 2010, dated 2013):
# Test system: AsOMT116
# Experiment: Enzyme reaction of crude recombinant AsOMT116 with thujaplicatin and S-adenosylmethionine, product analysed by GC-MS
# Type: biochemical, Anthrissus sylvestris
# Conditions: 0.01 mM substrate, 0.04 mM S-adenosylmethionine, about 3 mg crude enzyme from E. coli, pH 7.5, 30° C., one hour; product identified as 5-methylthujaplicatin by GC-MS
# Protocol: To clarify the biochemical enzyme functions, the enzymes were expressed in Escherichia coli. Using the plasmid for expression of AsOMT116 Escherichia coli obtained above, Escherichia coli BL21 (DE3) strain was transformed in a conventional manner. The resulting transformants were inoculated in 4 ml of LB medium (10 g/l tryptone peptone, 5 g/l yeast extract, 1 g/l NaCl) containing 50 μg/ml of ampicillin followed by shake culture at 37° C. overnight. When the cells reached the stationary phase, 4 ml of the culture broth was inoculated into 80 ml of fresh medium of the same composition, followed by shake culture at 37° C. At the point when the cell turbidity (OD600) reached approximately 0.5, 0.5 mM IPTG in a final concentration was added to the cells, followed by shake culture at 18° C. for 20 hours.
# The following procedures were all carried out at 4° C. The transformants cultured were collected by centrifugation (5,000×g, 10 minutes) and suspended by adding 1 ml/g cell of lysis buffer (20 mM HEPES buffer (pH 7.5), 14 mM β-mercaptoethanol). Subsequently, the suspension was ultrasonicated (15 secs.×8 times) and then centrifuged (15,000×g, 15 minutes). The supernatant (soluble fraction) obtained was recovered as a crude enzyme solution. The crude enzyme solution was used for enzyme analysis.
# Conditions for the enzyme reaction are as follows. […]
structure (smiles),measurement,value
COc1cc(C[C@H]2COC(=O)[C@@H]2Cc2cc(O)c(O)c(OC)c2)ccc1O [thujaplicatin],lignan methylation activity (methylation of substrate by AsOMT116),specifically methylates the 5-position
